Data set [1] is described as follows: Single-molecule FRET with donor and acceptor dyes on ribosomal proteins S13 and L1. It counts as physicochemical, E. coli. Particulars: ribosome S13/L1 labels, 532 nm excitation, same day and conditions, FIG. 12.
Source text: In this study, donor and acceptor fluorophores are attached to two ribosomal proteins (S13 small subunit; L1 large subunit, respectively).
Ribosomal protein S13 was PCR cloned from E. coli strain K12 genomic DNA into the pPROEX HTb vector with a TEV-protease-cleavable histidine (His)6 tag and a 12-residue peptide encoding the S6 epitope for the Sfp phosphopantetheinyl transferase reaction (amino acid sequence, [sequence]) fused at the N terminus (N-Sfp). {Yin, J., Lin, A. J., Golan, D. E. & Walsh, C. […] 1, 280-285 (2006)} After transformation of this plasmid into an E. coli ΔS13 knockout strain, cells were cultured and ribosomes were harvested as previously described. {Wang, L., Altman, R. B. & Blanchard, S. C. […]
Single-molecule FRET experiments were performed at room temperature in Tris-polymix with 5 mM Mg2+ buffer, as previously described {Wang, L., Altman, R. B. & Blanchard, S. C. […] The smFRET data were acquired by directly exciting the Cy3 fluorophore at 532 nm (LaserQuantum) while the Cy3 and Cy5 intensities were simultaneously recorded in Metamorph (Molecular Devices) with a 40-ms integration time. The data were analyzed in MATLAB (MathWorks) and plotted in Origin (OriginLab), as previously described. {Munro, J. B., Altman, R. B., O'Connor, N. & Blanchard, S. C.
The conditions of data set [2]: cited from earlier work.
A short description of data set [3]: Laser flash photolysis (time-resolved transient absorption) of Cy5 derivatives with benzophenone sensitizer. It counts as physicochemical. Conditions: for lifetime of the 700 nm transient: acetonitrile, BP 5 mM, Cy5 22 μM.
Source text: This experiment examined whether enhanced photostability of the Cy5 fluorophore, when covalently linked to protective agents (COT, NBA or Trolox) (Chart 1) can be specifically attributed to a triplet state quenching mechanism using laser flash photolysis (time-resolved transient absorption spectroscopy).
Because the formation of triplet states of Cy5 is inefficient (triplet quantum yield <0.003) upon direct excitation, a triplet sensitizer was employed to more efficiently populate the Cy5 triplet state (^3Cy5*) through an energy transfer mechanism (eq 1).
Deoxygenated acetonitrile solutions containing BP and Cy5 were irradiated with light pulses from a Nd-YAG laser at 355 nm (5 ns pulse width) to generate transient absorption kinetic traces across the visible spectrum. From these traces, transient absorption spectra at different times after the laser pulse were constructed (FIG. 3). Directly after the laser pulse the spectrum is dominated by the triplet absorption of BP, which is known to show a peak at 525 nm. […] Assignment of this new transient at 700 nm as the triplet state absorption of Cy5 was subsequently confirmed by performing quenching studies in the presence of a small amount of oxygen (0.45 mM; generated by bubbling the acetonitrile solution with a gas mixture of 5% O2 and 95% N2).
In addition to different protective agents (COT, NBA and Trolox), the length of the spacer between Cy5 and the protective agent was also varied. Laser flash photolysis experiments in argon-saturated acetonitrile solutions using BP as the sensitizer were performed on each of the Cy5 derivatives. […] The initial growth in transient absorption is caused by the energy transfer process from ^3BP* to the Cy5 chromophore analog in eq 1, which is then followed by the decay of the Cy5 triplet state. The concentrations of the Cy5 derivatives were optimized in order to ensure accurate triplet lifetime determination. […]
A short description of data set [4]: Single-molecule TIRF fluorescence imaging of dye-labeled duplex DNA (photostability). It counts as physicochemical.
Procedure: Each DNA strand was individually labeled with a single, NHS-activated “self-healing” fluorophore and hybridized to a complementary strand. Purified duplexes were used for single-molecule experiments.
All experiments were performed using a laboratory built, prism-based TIRE apparatus. Biotinylated DNA molecules were immobilized via a biotin-streptavidin interaction within microfluidic channels constructed on quartz slides. Fluorescence from surface-immobilized molecules, illuminated via the evanescent wave generated by total internal reflection of a 640 nm laser source, was collected using a water-immersion objective and imaged onto a EMCCD camera. […]
The photophysical properties of fluorophores were analyzed using automated software built in-house using Matlab. To extract kinetic parameters of blinking and photobleaching, the fluorescence traces were normalized to the mean fluorescence intensity of each dataset and idealized using the SKM algorithm and a 3-state model with one fluorescent (on) state, a transient dark state (blinking) and a permanent dark state (photobleaching). Time on (τon) was calculated by fitting the cumulative distribution to an exponential function.
By tracking the fluorescence of individual molecules over time, the intensity and duration of fluorescence, as well as the kinetics of blinking and photobleaching could be quantified. […]

Structures are written as SMILES. A value given as a limit tells only on which side of the number the result lay.

In the case of `CCN1/C(=C/C=C/C=C/C2=[N+](CCCCCC(=O)O)c3ccc(S(=O)(=O)O)cc3C2(C)C)C(C)(C)c2cc(S(=O)(=O)[O-])ccc21` [Cy5], the “brightness and duration of donor and acceptor fluorescence / quality of FRET data” value in data set [1] is “short-lived and are noisy and relatively difficult to analyze”. Further, in data set [2] (fluorescence), the quantum yield result is given as “approximately 0.3”. In data set [2] (upon direct excitation), the triplet quantum yield is less than 0.003. In addition, in data set [3] (deoxygenated acetonitrile, BP sensitizer, 355 nm pulse, triplet absorption at 700 nm), the “τtriplet (triplet lifetime)” value is listed as 63 ± 3 μs. The “lifetime of the 700 nm transient” value in data set [3] (in the absence of O2 (argon purged)) is reported as roughly 22 μs; in data set [3] (in the presence of O2 (0.45 mM; 5% O2/95% N2)) it was 1.7 μs. For the same compound, the “time period of fluorescence before blinking or photobleaching (visual inspection of traces)” value in data set [4] (individual fluorescence traces, dye on double stranded DNA, 641 nm) is “shortest”. Further, the “Average number of photons (10^4 photons) detected before photobleaching or blinking” value in data set [4] (single-molecule measurements, dye on duplex DNA, TIRF, 641 nm illumination, deoxygenated solution) is recorded as 2.1 ± 0.1 10^4 photons.

For `CCN1C(=CC=CC2=[N+](CCCCCC(=O)O)c3ccc(S(=O)(=O)O)cc3C2(C)C)C(C)(C)c2cc(S(=O)(=O)[O-])ccc21` [Cy3], the “brightness and duration of donor and acceptor fluorescence / quality of FRET data” value in data set [1] was “short-lived and are noisy and relatively difficult to analyze”.
